In US10233157B2, “SIK inhibitor for use in a method of treating an inflammatory and/or immune disorder” (Dana-Farber Cancer Institute, Inc., priority 2012, dated 2019):

Assays:
MARK isoforms = assay: Kinase assays, MARK isoforms; type: biochemical; details: in vitro
Procedure: (§1) FLAG-CRTC3 was immunoprecipitated using anti-FLAG M2 agarose, washed in kinase buffer (50 mM Tris/HCl pH 7.4, 10 mM Mg acetate, 0.1 mM EGTA, 2 mM DTT) and reactions initiated by adding 4 U/ml recombinant kinase with 0.1 mM ATP (specific activity 3000 cpm/pmol). Phosphorylation of CRTC3 was monitored by autoradiography as well as immunoblotting using phosphospecific antibodies raised against Ser162, Ser329 and Ser370.

NUAK isoforms = assay: Kinase assays, NUAK isoforms; type: biochemical; details: in vitro
Procedure: as §1

TBK1/IKKε−/− fibroblasts = assay: nurr77 mRNA in IL-1 stimulated TBK1/IKKε−/− embryonic fibroblasts; type: cell-based, mouse; details: fibroblasts not expressing the IKK-related kinases
Procedure: Bone marrow-derived macrophages were differentiated for 7 days in DMEM supplemented with 5 ng/ml recombinant M-CSF (R&D systems), 2 mM glutamine, 10% foetal calf serum (FCS), penicillin and streptomycin. RAW264.7 cells and immortalized mouse embryonic fibroblasts (MEFs) from TBK1/IKKε^+/−, TBK1/IKKε^−/−, LKB1^+/+ and LKB1^−/− mice were cultured in DMEM containing 10% FCS, 2 mM glutamine and penicillin and streptomycin, while THP-1 monocytes were grown in RPMI-1640 supplemented with 10% FCS and antibiotics. For the culture of primary human macrophages, PBMCs were isolated from human blood using Ficoll and the monocytes were purified using anti-CD14 magnetic beads (Miltenyi Biotec). Monocytes were differentiated into macrophages for 6 days in the presence of 100 ng/ml M-CSF.

Q: What does the source list for `O=C(NCCCNc1nc(Nc2cccc(CN3CCOCC3)c2)ncc1C1CC1)C1CCC1` [MRT67307]?
A: inhibition of MARK isoforms (MARK isoforms): comparable potency to the IKK-related kinases; inhibition of NUAK isoforms (NUAK isoforms): comparable potency to the IKK-related kinases; transcription of CREB-dependent nurr77 gene (TBK1/IKKε−/− fibroblasts): could still enhance
